This experiment concerns the target T1, human zDHHC2 (Homo sapiens, UniProt Q9UIJ5).
T1 construct: expressed in transfected cells; host or cells: HEK293T
T1 sequence (Q9UIJ5 1-367): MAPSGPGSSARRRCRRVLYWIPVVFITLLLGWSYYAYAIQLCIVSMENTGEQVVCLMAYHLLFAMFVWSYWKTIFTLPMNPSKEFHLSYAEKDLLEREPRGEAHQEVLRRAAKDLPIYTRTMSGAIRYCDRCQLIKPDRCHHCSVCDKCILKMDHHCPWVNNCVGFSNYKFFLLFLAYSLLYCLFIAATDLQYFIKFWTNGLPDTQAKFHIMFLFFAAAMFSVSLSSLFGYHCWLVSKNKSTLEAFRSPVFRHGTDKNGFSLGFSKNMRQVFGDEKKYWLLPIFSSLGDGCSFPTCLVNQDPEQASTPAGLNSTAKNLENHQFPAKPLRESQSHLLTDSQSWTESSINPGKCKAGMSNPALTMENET
Put plainly: TR-FRET high-throughput assay of zDHHC2 autoacylation (HA-zDHHC2 lipoparticles, NBD-palmitoyl-CoA). It is filed as biochemical. The conditions noted are these: Ono; for inhibition at 4.2 µM: compound 4.2 μM; for inhibition at 12.5 µM: compound 12.5 μM. The text has this:
S-acylation is a two-step process involving enzyme “autoacylation” (at the cysteine of the DHHC motif) followed by transfer of the acyl chain to a substrate protein. To identify potential inhibitors of S-acylation, we developed an assay measuring enzyme autoacylation and focused on zDHHC2 given its prominent role in synaptic function in the nervous system (Fig. 1A). The assay monitors time-resolved FRET (TR-FRET) between the energy donor terbium cryptate (attached to an antibody recognizing hemagglutinin [HA]-tagged zDHHC2) and the acceptor fluorophore nitrobenzoxadiazole (NBD) (attached to the lipid group). The excitation of the energy donor terbium cryptate (360 nm) followed by its emission at 480 nm results in energy transfer to the acceptor NBD and emission at 539 nm. Enzyme autoacylation by NBD-conjugated palmitoyl-CoA increases the proximity of the terbium cryptate and NBD, leading to an increase in FRET signal. The resulting interaction is quantified as the ratiometric measurement of NBD (539 nm) over terbium (480 nm) emission and constitutes the TR-FRET signal.
Figure 1 High-throughput screen (HTS) for the discovery of chemical compounds modulating human zDHHC2 autoacylation activity: TR-FRET-based assay.A, experimental design of the HTS. HA-tagged zDHHC2 enzyme expressed at the surface of lipoparticles was incubated for 15 min at room temperature (RT) with NBD-tagged palmitoyl-CoA and an anti-HA antibody coupled to terbium (Tb) cryptate. Autoacylation of zDHHC2 on its catalytic cysteine brings closer the FRET donor Tb cryptate bound to the anti-HA antibody to the NBD fluorophore coupled to the palmitate and triggers FRET that can be followed over time (time-resolved FRET [TR-FRET]). B, TR-FRET was measured with increasing concentrations of NBD-palmitoyl-CoA (NBD-C16:0-CoA) and either WT zDHHC2 (left panel) or catalytically dead zDHHC2 C157S (right panel) over a period of 35 min. C, experimental conditions of the HTS screen. About 350,000 compounds were incubated individually in 1536-well plates at a concentration of 4.2 μM with zDHHC2 lipoparticles (42 μg/ml stock) for a few minutes before the addition of a mix containing the Tb cryptate–tagged anti-HA antibody (1:200 dilution) and 1 μM of NBD-palmitoyl-CoA (NBD-C16:0-CoA). TR-FRET was measured after a 15 min incubation at room temperature on a Biotek Synergy Neo apparatus. Results are given as a ratio between the FRET signal measured over a background baseline. D, histogram representation of ONO library screen showing the percentage of activity of zDHHC2 (as measured by TR-FRET) in the presence of each compound. The graph represents the number of compounds that are either activating (0 to 100) or inhibiting (0 to −100) zDHHC2 activity. […]
For orientation: TR-FRET usually uses a lanthanide donor and a delayed reading to cut background.

The structures appear in SMILES notation.

As a reminder, the inhibition is the drop in the measured response relative to a control, in per cent. On to `CCCCCCCOc1ccc(C(=O)Nc2cccc3c2OC(c2nnn[nH]2)CN3)cc1` (stereo not shown) [TTZ-1, N-(2-(1H-Tetrazol-5-yl)-3,4-dihydro-2H-benzo[b][1,4]oxazin-8-yl)-4-(heptyloxy)benzamide], for which the inhibition at 4.2 µM stood at 32% and the inhibition at 12.5 µM is 61%.

With `O=C(Nc1cccc2c1OC(c1nnn[nH]1)CN2)c1ccc(OCCCCc2ccccc2)cc1` (stereo not shown) [TTZ-2, N-(2-(1H-Tetrazol-5-yl)-3,4-dihydro-2H-benzo[b][1,4]oxazin-8-yl)-4-(4-phenylbutoxy)benzamide], the inhibition at 4.2 µM was found to be 45% and the inhibition at 12.5 µM came to 69%.
